Source: US11292812B2, “3′3′-cyclic dinucleotides” (Institute of Organic Chemistry and Biochemistry, ASCR, V.V.I, priority 2018, dated 2022)
pEC50: −log10 of the molar value.

Tests used:
WT STING [1] = target: T1, WT STING (Homo sapiens, UniProt Q86WV6, H232R); experiment: Digitonin assay using 293T wtSTING-FL reporter cells; type: cell-based; conditions: 293T wtSTING-FL cells, ISRE firefly luciferase reporter, digitonin buffer 30 minutes, then 5 hours
Text: Two complementary oligonucleotides of the sequence […] […] […] […] […] […] […] The oligonucleotides were mixed in equal molar amounts, hybridized, and cleaved by restriction endonucleases HindIII (cat. #. R0104S, NEB, Ipswich, USA) and BglII (cat. #R0144S, NEB, Ipswich, USA). Ultimately, they were ligated into plasmid pGL4.27 (cat. #E6651, Promega, Madison, USA) linearized with the same enzymes. As result the sequence with four ISRE sites was placed upstream of the minimum promoter of firefly luciferase reporter gene.
After 5 minutes incubation at room temperature (RT), 250 μL of the mixture was added dropwise to the cells in one well. Cells were incubated 36 hours at 37° C. with 5% CO2, and then detached with 0.05% Trypsin and 0.22 g/L EDTA (both cat. #L0941, Biowest, Riverside, USA).
Transfected cells were seeded onto poly-D-lysine coated six well plates at density 50,000 cells per 1 cm^2 in DMEM medium with high glucose containing 10% heat inactivated FBS, 30 μg/mL blasticidin (cat. #ant-bl-05, InvivoGen, San Diego, USA), 0.06 mg/ml Penicillin G and 0.1 mg/ml Streptomycin Sulfate (both cat. #. L0018, Biowest, Riverside, USA). The medium was replenished every 3-4 days until visible colonies of cells resistant to blasticidin were formed.
Blasticidin resistant cells stably expressing WT STING were further transfected with pGL64.27-4×ISRE plasmid following the same procedure as described above. […] Homogeneous culture of stably double transfected cells was prepared by limiting dilution of cells in 96 well plates and wells with cells were selected that originated from a single cell.
The medium was removed next day and three fold serial dilutions of compounds in Digitonin buffer containing 50 mmol·l^−1 HEPES (cat. #H3375, Sigma Aldrich, Czech Republic) pH 7.0, 100 mmol·l^−1 KCl, 3 mmol·l^−1 MgCl2, 0.1 mmol·l^−1 DTT (cat. #D0632, Sigma Aldrich, Czech Republic), 85 mmol·l^−1 Sucrose (cat. #S7903, Sigma Aldrich, Česká Republika), 0.2% BSA (cat. #A2153, Sigma Aldrich, Czech Republic), 1 mmol·l^−1 ATP (cat. #A1852, Sigma Aldrich, Czech Republic), 0.1 mmol·l^−1 GTP (cat. #G8877, Sigma Aldrich, Czech Republic), and 10 μg/mL Digitonin A (cat. #D141, Sigma Aldrich, Czech Republic) were added to the cells. The buffer was removed after 30 minutes incubation at 37° C. with 5% CO2, the cells were washed once with 100 μl of cultivation medium, and 100 μl of medium was added to each well. The plates with cells were incubated for 5 hours at 37° C. with 5% CO2, 50 μl of the medium was removed and 30 μl of ONE-Glo™ Luciferase Assay System reagent (cat. #E6120, Promega, Madison, USA) was added to each well. Luminesce was read on Synergy H1 (Biotek, Winooski, USA).
Target sequence in this assay (Q86WV6 whole entry H232R): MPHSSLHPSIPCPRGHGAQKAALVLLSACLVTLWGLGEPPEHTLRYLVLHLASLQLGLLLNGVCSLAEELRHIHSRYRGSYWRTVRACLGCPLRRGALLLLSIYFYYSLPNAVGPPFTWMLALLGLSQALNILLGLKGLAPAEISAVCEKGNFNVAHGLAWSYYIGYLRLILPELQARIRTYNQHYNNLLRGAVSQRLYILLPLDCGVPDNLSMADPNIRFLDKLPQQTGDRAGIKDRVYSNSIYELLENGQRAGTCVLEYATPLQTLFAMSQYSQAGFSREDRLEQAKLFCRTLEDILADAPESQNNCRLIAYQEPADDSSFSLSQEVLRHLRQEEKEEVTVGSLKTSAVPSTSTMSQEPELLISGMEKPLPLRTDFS

WT STING [2] = target: T1, WT STING; experiment: Differential Scanning Fluorimetry with WT STING; type: binding; set-up: truncated human WT STING or AQ STING (amino acid residues 140-343); 8xHis (N, cleaved yes); SUMO (N, cleaved yes); made in house; host or cells: E. coli Rosetta-gami B (DE3); conditions: thermal shift, truncated human WT STING 0.1 mg/ml, 150 μM CDN; for ΔTm at 150 µM: read-out: DSF ΔTm WT STING
Description: (§1) Purified PCR products were cleaved with restriction enzymes BamHI (cat. #R0136S, NEB, Ipswich, USA) and NotI (cat. #R0189S, NEB, Ipswich, USA) and cloned into the pSUMO vector linearized with the identical enzymes.
(§2) DNase I (cat. #D5025, Sigma Aldrich, Czech Republic) and RNase A (cat. #R6513, Sigma Aldrich, Czech Republic) were added (final concentration 50 μg/ml) together with MgCl2 (final concentration 5 mmol·l^−1) to the homogenate and bacteria were lysed using French Press G-M™ High-Pressure Cell Press Homogenizer (1500 psi, 3 cycles). […] The resin was poured into a chromatography column, washed with 50 ml buffer A (50 mmol·l^−1 TrisCl (pH 8.0), 800 mmol·l^−1 NaCl, 3 mmol·l^−1 β-mercaptoethanol; 10% glycerol; 20 mmol·l^−1 imidazole) and 8-His-SUMO tagged STING proteins were eluted with 15 ml buffer A containing 300 mmol·l^−1 imidazole. […] Proteins were concentrated with Amicon® Ultra-15 10 K device (cat. #UFC901008, Merck Millipore, Billerica, USA) and flash frozen in liquid N2.
(§3) 20 μL solutions of the reaction mixtures were pipetted in triplicates into 96 well optical reaction plates and thermal denaturation of samples were performed on real time PCR cycler (LightCycler® 480 Instrument II—Roche, Basel, Switzerland). The first derivative of the thermal denaturation curves was performed to calculate denaturing temperatures of STING-CDN complexes and STING apoproteins. The thermal shift for each CDN was calculated by subtracting the average denaturing temperature of STING apoprotein from the average denaturing temperature of STING CDN complex.
Target sequence in this assay (Q86WV6 140-343 H232R): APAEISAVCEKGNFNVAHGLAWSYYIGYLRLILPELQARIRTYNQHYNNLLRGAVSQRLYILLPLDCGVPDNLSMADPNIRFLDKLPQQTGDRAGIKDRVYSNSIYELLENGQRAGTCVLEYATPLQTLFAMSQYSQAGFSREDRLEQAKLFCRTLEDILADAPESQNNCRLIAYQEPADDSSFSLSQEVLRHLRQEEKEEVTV

AQ STING (G230A-R293Q) = target: T2, AQ STING (G230A-R293Q) (Homo sapiens, UniProt Q86WV6, G230A/H232R/R293Q); experiment: Differential Scanning Fluorimetry with AQ STING; type: binding; conditions: thermal shift, truncated human AQ STING 0.1 mg/ml, 150 μM CDN; for ΔTm at 150 µM: read-out: DSF ΔTm AQ STING
T2 construct: truncated human WT STING or AQ STING (amino acid residues 140-343); 8xHis (N, cleaved yes); SUMO (N, cleaved yes); made in house; host or cells: E. coli Rosetta-gami B (DE3)
Description: as §1, §2, §3

T2 sequence (Q86WV6 140-343 G230A/H232R/R293Q): as the sequence (Q86WV6 140-343 H232R) above, with G91A, R154Q counted along it

Structure (SMILES)	pEC50 (WT STING [1])	DSF ΔTm WT STING (WT STING [2]) [°C]	DSF ΔTm AQ STING (AQ STING (G230A-R293Q)) [°C]	ΔTm at 150 µM (WT STING [2]) [°C]	ΔTm at 150 µM (AQ STING (G230A-R293Q)) [°C]
Nc1nc2c(ncn2[C@@H]2O[C@@H]3COP(=O)(O)OC4C(O)[C@H](n5cnc6c(N)ncnc65)O[C@@H]4COP(=O)(O)COC3C2F)c(=O)[nH]1 (stereo partly drawn) [Example 11, 2-amino-9-((2R,3R,3aS,7aR,9R,10R,10aR,15aR)-2-(6-amino-9H-purin-9-yl)-10-fluoro-3,5,13-trihydroxy-5,13-dioxidodecahydro-2H-difuro[3,2-d:3′,2′-k][1,3,7,10][tetraoxa][2,8]diphosphacyclotridecin-9-yl)-1,9-dihydro-6H-purin-6-one]	7.30	–	–	7.3	11.3
Nc1nc2c(ncn2[C@@H]2O[C@@H]3COP(=O)(O)OC4C(F)[C@H](n5cnc6c(N)ncnc65)O[C@@H]4COP(=O)(O)COC3C2F)c(=O)[nH]1 (stereo partly drawn) [Example 12]	7.70	–	–	9.3	17.3
Nc1ncnc2c1ncn2[C@@H]1O[C@@H]2COP(=O)(O)OC3C(F)[C@H](n4cnc5c(N)ncnc54)O[C@@H]3COP(=O)(O)COC2C1F (stereo partly drawn) [Example 13, (2R,3R,3aR,7aR,9R,10R,10aR,15aR)-2,9-bis(6-amino-9H-purin-9-yl)-3,10-difluoro-5,13-dihydroxydecahydro-2H-difuro[3,2-d:3′,2′-k][1,3,7,10]tetraoxa[2,8]diphosphacyclotridecine 5,13-dioxide]	7.92	–	–	9.4	16.1
Nc1nc2c(ncn2[C@@H]2O[C@@H]3COP(=O)(O)OC4C(F)[C@H](n5cnc6c(=O)[nH]c(N)nc65)O[C@@H]4COP(=O)(O)COC3C2F)c(=O)[nH]1 (stereo partly drawn) [Example 16, 9,9′-((2R,3R,3aR,7aR,9R,10R,10aR,15aR)-3,10-difluoro-5,13-dihydroxy-5,13-dioxidodecahydro-2H-difuro[3,2-d:3′,2′-k][1,3,7,10]tetraoxa[2,8]diphosphacyclotridecine-2,9-diyl)bis(2-amino-1,9-dihydro-6H-purin-6-one)]	6.52	–	–	3.1	10.7

Second part, the molecule after the results:

pEC50 (WT STING [1])	DSF ΔTm WT STING (WT STING [2]) [°C]	DSF ΔTm AQ STING (AQ STING (G230A-R293Q)) [°C]	ΔTm at 150 µM (WT STING [2]) [°C]	ΔTm at 150 µM (AQ STING (G230A-R293Q)) [°C]	Structure (SMILES)
< 4.00	0.0	−0.2	–	–	Nc1ncnc2c1ncn2[C@@H]1O[C@@H]2COP(=O)(O)COC3C(O)[C@H](n4cnc5c(N)ncnc54)O[C@@H]3COP(=O)(O)COC2C1O (stereo partly drawn) [Example 10, (2R,3R,3aR,8aR,10R,11R,11aR,16aR)-2,10-bis(6-amino-9H-purin-9-yl)-3,6,11,14-tetrahydroxvdodecahydrodifuro[3,2-e:3′,2′-l][1,4,8,11]tetraoxa[2,9]diphosphacyclotetradecine 6,14-dioxide]
7.05	–	–	3.8	11.2	Nc1nc2c(ncn2[C@H]2CC3OCP(=O)(O)OC[C@H]4O[C@@H](n5cnc6c(N)ncnc65)C(F)C4OP(=O)(O)OC[C@H]3O2)c(=O)[nH]1 (stereo partly drawn) [Example 14, 2-amino-9-((2R,3R,3aR,7aR,9R,10aS,15aR)-2-(6-amino-9H-purin-9-yl)-3-fluoro-5,13-dihydroxy-5,13-dioxidodecahydro-2H-difuro[3,2-d:3′,2′-k][1,3,7,10]tetraoxa[2,8]diphosphacyclotridecin-9-yl)-1,9-dihydro-6H-purin-6-one]
